Data: publication PMC9304282, “Relating Conformational Equilibria to Conformer‐Specific Lipophilicities: New Opportunities in Drug Discovery” (Angewandte Chemie (International Ed. in English), 2021)
Where “and” joins values, the source holds several entries; their conditions need not be identical. Equal entries are not always repeated. Where two headings read alike, the source gives them in different places.

Columns and labels:
[1] = logP and conformer-specific logp determination by 19F NMR (octanol/water partitioning); format: physicochemical; settings: for logP: n-octanol/water, octanol/water, 19F NMR
Text: The principle of the strategy for logp optimization, and of the direct logp measurement, is illustrated for amide rotamers (Figure 2) in slow exchange in solution, where each rotamer signal can be integrated directly. This constitutes a system with four coupled equilibria of conformers between (refers to p) and within (refers to K) the two phases (Figure 2A). Our lipophilicity measurement procedure[18] involves acquiring a ^19F NMR spectrum of each phase after phase separation (Figure 2B), and measuring integration relative to an added internal reference. Three peaks are observed: one corresponding to the reference, and two corresponding to each amide rotamer. A ρ‐value for a given rotamer in a given phase is defined as the integration ratio of the rotamer signal and that of the reference (Eq. 5). Through taking the ratio of the ρ‐values of a rotamer, Equation 6 can be obtained,[18] showing that its logp equals the known logP of the reference plus the log of the ratio of its ρ‐values. The overall logP of the amide is then determined by using the integration sum of its rotamer signals using the same equation.[18]
Linclau et al – supporting information 8
3 The logP determination by 19F NMR
Lipophilicities were determined using a previously published protocol:[1] to a 10 mL pear-shaped flask was added the compound (1.0 - 10 mg) for logP determination, the reference compound (1.0 - 10 mg, with known logP value, e.g., 2,2,2-trifluoroethanol, logP: +0.36), water (2 mL) and n-octanol (2 mL). The resulting biphasic mixture was stirred (at 600 rpm) for 2 h at 25 °C, and then left without stirring for 16 h at 25 °C to allow phase separation. An aliquot of 0.5 mL was taken from each phase using 1 mL syringes with long needles and added to two separate NMR tubes. A deuterated NMR solvent (0.1 mL, e.g., acetone-d6), or a capillary tube containing deuterated NMR solvent, was added to the NMR tubes to enable signal locking.
Because of the volatility of the used compounds, the NMR tubes were sealed using a blowtorch. For NMR samples with directly added deuterated solvent, the tubes were inverted 20 times for mixing. For 19F{1H} NMR experiments, NMR parameters were set as follows: D1 30 sec for the octanol sample, D1 60 sec for the water sample; and O1P centered between two diagnostic fluorine peaks. If needed, an increased number of transients (NS) and/or narrower spectral window (SW) for a good S/N ratio (typically >300) was applied.
After NMR data processing, integration ratios ρoct and ρaq (ρoct is defined as the integration ratio between the compound and the reference compound in the octanol sample; likewise for ρaq) were obtained, and used in the equation (logPX = logPref + log(ρoct/ρaq)) to obtain the logP value of the compound. The logP measurement of each compound was run in triplicate. LogP values of non-fluorinated compounds were taken from the literature.
The standard deviation (σ) was calculated using the formula: […]
Where xi are the individual estimated logP values and x̅ is the mean average.
(§1) Linclau et al – supporting information 21
(§2) 4.3 Detailed experimental data for the logP determinations (roct and rwat values for each
(§3) 4.3.1 Standard NMR settings
(§4) Standard NMR parameter setting: SW, 300 ppm; centered O1P; NS 64; D1 30 sec (octanol sample), D1 60 sec (water sample). Any change from standard setting was described for each compound. Unless specified otherwise 2,2,2-trifluoroethanol (logP: +0.36) was used as the reference compound. […]
(§5) Reference - 1-Fluoropropan-2-ol
(§6) Compound Experimental ρ /ρ LogP Average Error
(§7) (octanol/water) oct wat LogP
(§8) Ratio of E:Z-rotamers, and K value:
(§9) Octanol phase Water phase
(§10) Conformation ρ /ρ LogP Average Error

[2] = amide rotamer ratio (K value) in octanol and water phase by 19F NMR integration; format: physicochemical; settings: experimental
Text: In the closed equilibrium system shown in Figure 2A, the ratio of the p‐values equates to the ratio of the K‐values ((Eq. 7), Figure 2C), so that the difference in logp values equals the log of the K‐value ratio (Eq. 8). In other words: the lipophilicity difference between two conformers is directly related to the change between their equilibrium concentration ratios in water and octanol. The K‐values can be obtained through integration measurement (Eq. 8).
The ρ and K determinations require assignment of each fluorine signal in each phase to a particular rotamer, as it was observed that the relative position of cis‐and trans‐amide rotamer resonances in the ^19F NMR spectrum in octanol was not always the same as that in water. Conformer signal assignment in the water phase is easily accomplished by a control experiment using (octanol‐saturated) D2O by standard NOESY analysis combined with peak integration (see Supporting Information). As perdeuterated octanol is very expensive, this was experimentally non‐trivial for cases when the huge octanol solvent R‐CH 2OH signal and its ^13C satellites obscure proton resonances that are required for rotamer assignment. Solvent suppression techniques are impractical, and skew the integration ratio. We therefore introduced 1,1‐dideuteriooctanol (C7H15CD2OH), which considerably facilitated rotamer assignment. It is prepared on large scale by a modified Bouveault–Blanc reduction[20] of cheap methyl octanoate with EtOD as deuterium source (see Supporting Information).
as §1, §2, §3, §4, §5, §6, §7, §8, §9, §10

[3] = difference between E and Z rotamer logp
[4] = unrounded mean, read-out: logP, mean as printed in column Error (±σ)
[5] = unrounded mean, read-out: logp E rotamer, mean as printed in column Error (±σ)
[6] = unrounded mean, read-out: logp Z rotamer, mean as printed in column Error (±σ)
[7] = 25 °C, sum of rotamer signals, read-out: logP (macroscopic lipophilicity, average)
[8] = difference between trans and cis rotamer logp
[9] = unrounded mean, read-out: logp cis rotamer, mean as printed in column Error (±σ)
[10] = unrounded mean, read-out: logp trans rotamer, mean as printed in column Error (±σ)

SMILES	Δlogp [1, 3]	logP [1, 4]	logP [1, 5]	logP [1, 6]	logP [1, 7]	KE/Z oct (ratio of E:Z rotamers) ([2]; octanol phase)	Ratio Z/E (K value in parentheses) ([2]; octanol phase)	KE/Z wat (ratio of E:Z rotamers) ([2]; water phase)	Ratio Z/E (K value in parentheses) ([2]; water phase)	Δlogp [1, 8]	logP [1, 9]	logP [1, 10]	Kt/c oct (ratio of trans/cis rotamers) ([2]; octanol phase)	Ratio c/t ([2]; octanol phase)	Kt/c wat (ratio of trans/cis rotamers) ([2]; water phase)	Ratio c/t ([2]; water phase)	logP ([1]; cis amide rotamer, read-out: logp (cis)-rotamer (conformer-specific, average))
CC(=O)N1CCC(F)C1 (stereo not shown) [compound 2, N-Acetyl-3-fluoropyrrolidine]	0.06	-0.568	-0.602	-0.538	-0.57	0.75	1.33	0.86	1.16								
COC(=O)[C@@H]1C[C@@H](F)CN1C(C)=O [6a, N-acetyl-4R-FPro-OMe]		-0.605			-0.6					0.09	-0.529	-0.618	5.29	0.19	6.49	0.15	
CC(=O)N1CCC(F)(F)C1 [compound 3, N-Acetyl-3,3-difluoropyrrolidine]	0.06	-0.117	-0.153	-0.089	-0.12	0.72	1.4 and 1.39	0.84	1.2 and 1.19								
CC(=O)N1C[C@H](F)C[C@H]1C(=O)N(C)C [6b, N-acetyl-(2S,4R)-4-fluoroproline dimethyl amide]		-1.16			-1.16					-0.27	-1.39	-1.12	8.29	0.12	4.44	0.23	-1.39
CC(=O)N1CCCC(F)(F)C1 [compound 5, N-Acetyl-3,3-difluoropiperidine]	-0.21	0.272	0.378	0.174	0.27	1.17	0.85	0.73	1.37								
CC(=O)N1CC(F)(F)C[C@H]1C(=O)N(C)C [7b, N-Acetyl-4,4-F2Pro-NMe2]		-0.888			-0.89					-0.11	-0.978	-0.866	4.76	0.21	3.68	0.27	
COC(=O)[C@@H]1CC(F)(F)CN1C(C)=O [7a, N-Acetyl-4,4-F2Pro-OMe]		-0.196			-0.2						-0.035	-0.256	2.09		3.48		
CC(=O)N1CCCC(F)C1 (stereo not shown) [compound 4, N-Acetyl-3-fluoropiperidine]	-0.19	-0.1	-0.015	-0.198	-0.1	1.43	0.70	0.95	1.05								
